Measured values from publication PMC10957897, “An evolutionary mechanism to assimilate new nutrient sensors into the mTORC1 pathway” (Nature Communications, 2024).
Substitutions are numbered along the chain they refer to.

Assays:
[1] = target: T1, Unmet expectations (Unmet; CG11596) (Drosophila melanogaster, UniProt Q9I7X6); assay: competition with [3H]SAM binding to purified protein on anti-FLAG beads; settings: 5 μM [3H]SAM, pH 7.4, on ice
T1 construct: FLAG-tagged, tag kept; pRK5 vector, expressed in suspension HEK-293T cells
T1 sequence (Q9I7X6 1-456): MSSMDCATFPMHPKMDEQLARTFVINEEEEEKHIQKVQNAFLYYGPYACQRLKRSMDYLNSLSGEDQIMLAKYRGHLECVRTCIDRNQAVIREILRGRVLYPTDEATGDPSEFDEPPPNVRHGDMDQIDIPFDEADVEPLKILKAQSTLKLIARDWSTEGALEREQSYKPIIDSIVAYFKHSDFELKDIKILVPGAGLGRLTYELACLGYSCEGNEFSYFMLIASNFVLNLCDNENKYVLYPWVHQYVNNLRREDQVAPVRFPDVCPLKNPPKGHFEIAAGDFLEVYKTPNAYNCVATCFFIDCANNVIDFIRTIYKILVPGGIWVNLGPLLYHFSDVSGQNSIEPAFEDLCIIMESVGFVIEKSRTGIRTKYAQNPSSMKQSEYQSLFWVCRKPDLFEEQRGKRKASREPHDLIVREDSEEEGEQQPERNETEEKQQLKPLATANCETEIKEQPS

[2] = target: T2, Unmet expectations (Unmet; CG11596) (Drosophila melanogaster, UniProt Q9I7X6, E30A); assay: [3H]SAM binding to purified protein on anti-FLAG beads; settings: 5 μM [3H]SAM with or without unlabeled SAM, pH 7.4, on ice; labelled compound
T2 construct: FLAG-tagged, tag kept; pRK5 vector, expressed in suspension HEK-293T cells
T2 sequence (Q9I7X6 1-456 E30A): T1 sequence (Q9I7X6 1-456) with E30A

SMILES | competition with [3H]SAM binding to purified protein on anti-FLAG beads [1] | SAM-binding capacity [2]
Nc1ncnc2c1ncn2[C@@H]1O[C@H](C[C@@H](N)CC[C@H](N)C(=O)O)[C@@H](O)[C@H]1O [sinefungin] | also competes with labeled SAM for binding to Unmet | 
Nc1ncnc2c1ncn2[C@@H]1O[C@H](CSCC[C@H](N)C(=O)O)[C@@H](O)[C@H]1O [SAH] | it readily competes with labeled SAM for binding to Unmet | 
C[S+](CC[C@H](N)C(=O)O)C[C@H]1O[C@@H](n2cnc3c(N)ncnc32)[C@H](O)[C@@H]1O (stereo partly drawn) [SAM] |  | The E30A mutant of Unmet does not interact with dGATOR2 but maintains its SAM-binding capacity
